Assay results from PMC8388802, “Study on the Structure-Activity Relationship of an Antimicrobial Peptide, Brevinin-2GUb, from the Skin Secretion of Hylarana guentheri” (Antibiotics, 2021).
Converted amounts (≈) assume the structure as drawn. Where a SMILES comes first, the peptide text is derived from it. Where no end group is shown, it is not given here.

Tests used:
[1] = system: enteroaggregative E. coli; details: cited from earlier work
Description: Due to the influence of physiological factors, there may be some difference between the antimicrobial activity in vitro and in vivo [41]. Consistent with the haemolysis assay and cytotoxicity assay results, Brevinin-2GUb is much harmful to the wax moth than tB2U-K and tB2U-6K. […] In our study, with the increase of the number of net charges, the survival rate of E. coli-infected wax moth is enhanced and the ability o ...

[2] = system: S. aureus (ATCC 6538); type: cell-based, Staphylococcus aureus
Description: (§1) The method of antimicrobial assay is based on the Methods for Dilution Antimicrobial Susceptibility Tests for Bacteria that Grow Aerobically from the Clinical and Laboratory Standards Institute (CLSI).The antimicrobial activities of peptides were evaluated against Gram-positive bacteria S. aureus (ATCC 6538), MRSA (NCTC 12493), E. faecalis (NCTC 12493), Gram-negative bacteria E. coli (ATCC CRM 8739), K. pneumoniae (ATCC 43816), P. aeruginosa (ATCC CRM 9027), yeast C. albicans (ATCC CRM 10231) and clinical isolates MRSA (B042 V2E1 A), E. coli (ATCC BAA-2340), K. pneumoniae (ATCC BAA-1705), P. aeruginosa (B004 V2S2 B).
(§2) At the first stage of the assay, 20 μL bacteria were cultured in 100 mL Mueller Hinton Broth (MHB) or Yeast Extract–Peptone–Dextrose broth (YPD-B), respectively, and was incubated overnight. Then, microorganisms were subcultured in 20 mL fresh MHB or YPD-B to achieve cultures in the logarithmic phase (1 × 10^8 CFU/mL), which can be verified by optical density (OD) (The OD of Gram-positive bacteria is 0.23, OD of Gram-negative bacteria is 0.4, and OD of yeast is 0.15), and viable cell counts. Then, the medium was used to dilute the cultures to specific cell densities (Gram-negative and Gram-positive bacteria: 5 × 10^5 CFU/mL; yeast: 1 × 10^6 CFU/mL), which were the final concentrations of bacterial suspensions used in the assay. The peptides were dissolved in DMSO to reach a final concentration of 512 µM. A series of two-fold dilutions ranging from 512 µM to 1 µM were dosed in the 96-well plates.
(§3) Antimicrobial assays were conducted in 96-well plates, which were divided into five groups, including a negative control group (PBS), a positive control group (20 μg/mL norfloxacin for bacteria and 10 μg/mL amphotericin B for yeast), vehicle control (1% DMSO), blank control (MHB or YPD-B), and a peptide group. Each microorganism had five repetitions, and each well contained 1 µL corresponding solution and 99 µL culture. After incubation at 37 °C overnight, the absorbance of each well was tested by a microplate reader (EL808, Biolise BioTek Winooski, Minneapolis, USA) under a 550 nm wavelength. The MIC is the lowest concentration at which no bacterial growth can be observed.
(§4) The next day, 10 µL of every clear well was taken out to be cultured on a Mueller Hinton Agar (MHA) plate and incubated at 37 °C for 16–20 h. The MBC is the lowest concentration without any bacterial colonies, which means at this concentration, the peptide reduces the viability of the pathogen by more than 99.9%.

[3] = system: C. albicans (ATCC CRM 10231); type: cell-based, Candida albicans
Description: as §1, §2, §3, §4

[4] = system: E. faecalis (NCTC 12493); type: cell-based, Enterococcus faecalis
Description: as §1, §2, §3, §4

[5] = system: MRSA (B042 V2E1 A); type: cell-based, Methicillin-resistant Staphylococcus aureus
Description: as §1, §2, §3, §4

[6] = system: MRSA (NCTC 12493); type: cell-based, Methicillin-resistant Staphylococcus aureus
Description: as §1, §2, §3, §4

[7] = system: E. coli (ATCC BAA-2340); type: cell-based, Escherichia coli
Description: as §1, §2, §3, §4

[8] = system: E. coli (ATCC CRM 8739); type: cell-based, Escherichia coli
Description: as §1, §2, §3, §4

[9] = system: P. aeruginosa (ATCC CRM 9027); type: cell-based, Pseudomonas aeruginosa
Description: as §1, §2, §3, §4

[10] = system: P. aeruginosa (B004 V2S2 B); type: cell-based, Pseudomonas aeruginosa
Description: as §1, §2, §3, §4

[11] = system: K. pneumoniae (ATCC 43816); type: cell-based, Klebsiella pneumoniae
Description: as §1, §2, §3, §4

[12] = system: K. pneumoniae (ATCC BAA-1705); type: cell-based, Klebsiella pneumoniae
Description: as §1, §2, §3, §4

[13] = system: S. aureus (ATCC 6538) biofilm; type: cell-based, Staphylococcus aureus; details: ATCC 6538, 24 h
Description: (§5) The anti-biofilm activities of the peptides against S. aureus (ATCC 6538), MRSA (NCTC 12493), E. faecalis (NCTC 12493), E. coli (ATCC CRM 8739), K. pneumoniae (ATCC 43816), and P. aeruginosa (ATCC CRM 9027) were evaluated.
(§6) The bacteria were inoculated in a different medium (Gram-positive bacteria were in TSB and Gram-negative bacteria were in LB) overnight, and the subculture was conducted in the same medium. When the bacteria reached a specific density, 100 µL of the dilution was added to each well of the 96-well microplate. Then 1 µL of peptide at a series of concentrations, the same concentration in the antimicrobial assay, were added into the well together with the bacteria. The plates were put into a moist shaking incubator with a speed of 200 rpm, and the temperature was set at 37 ℃. After a 24-h incubation, the liquid in the wells was aspirated, and each was washed twice by 100 µL PBS. One hundred µL of methanol were added into each well to stabilise the biofilm. After air-drying, 100 µL crystal violet was used to dye the biofilm, and they were dissolved in the 100 µL glacial acidic acid after drying. The solutions were transferred to a new microplate, and the absorbance of each well was tested by a microplate reader (EL808, Biolise BioTek Winooski, Minneapolis, MN, USA) at 595 nm wavelength. MBIC was the minimum concentration of the peptide showing no biofilm formation.
(§7) The bacteria were inoculated in a different medium (Gram-positive bacteria were in TSB and Gram-negative bacteria were in LB) overnight, and the subculture was conducted in the same medium. When the bacteria reached a specific density, 100 µL of the dilution was added to each well of the 96-well microplates. The plates were put into a moist shaking incubator with a speed of 200 rpm and the temperature was 37 ℃. After a 24 h incubation, the liquid in the wells was aspirated and they were washed twice by 100 µL PBS of each well. The peptides with the same concentrations were diluted in the corresponding medium and 100 µL were added into each well. After a 24-h incubation, the liquid in the wells was aspirated and they were washed twice by 100 µL PBS. One hundred µL of methanol were added into the wells to stabilise the biofilms. After being air-dried, 100 µL crystal violet was used to dye the biofilm, and they were dissolved in the 100 µL glacial acidic acid after drying. The solutions were transferred to a new microplate, and the absorbance of each well was tested by a microplate reader (EL808, Biolise BioTek Winooski, Minneapolis, USA) at 595 nm wavelength.

[14] = system: E. coli (ATCC CRM 8739) biofilm; type: cell-based, Escherichia coli; details: ATCC CRM 8739, 24 h
Description: as §5, §6, §7

[15] = system: K. pneumoniae (ATCC 43816) biofilm; type: cell-based, Klebsiella pneumoniae; details: ATCC 43816, 24 h
Description: as §5, §6, §7

[16] = system: P. aeruginosa (ATCC CRM 9027) biofilm; type: cell-based, Pseudomonas aeruginosa; details: ATCC CRM 9027, 24 h
Description: as §5, §6, §7

[17] = system: MRSA (NCTC 12493) biofilm; type: cell-based, Methicillin-resistant Staphylococcus aureus; details: NCTC 12493, 24 h
Description: as §5, §6
The bacteria were inoculated in a different medium (Gram-positive bacteria were in TSB and Gram-negative bacteria were in LB) overnight, and the subculture was conducted in the same medium. When the bacteria reached a specific density, 100 µL of the dilution was added to each well of the 96-well microplates. The plates were put into a moist shaking incubator with a speed of 200 rpm and the temperature was 37 ℃. […] The solutions were transferred to a new microplate, and the absorbance of each well was tested by a microplate reader (EL808, Biolise BioTek Winooski, Minneapolis, USA) at 595 nm wavelength.

[18] = system: E. faecalis (NCTC 12493) biofilm; type: cell-based, Enterococcus faecalis; details: NCTC 12493, 24 h
Description: as §5, §6, §7

[19] = system: wax moth (Galleria mellonella); experiment: Toxicity of peptides to waxworms; type: in vivo; details: uninfected waxworms, when the concentration reached 15 mg/kg

Molecule: Indolicidin (ILPWKWPWWPWRR; ends and bridges not checked; UniProt P33046 131-143, looked up) [antimicrobial peptide of a previous study in Galleria mellonella]
- survival rate of Galleria mellonella infected by the enteroaggregative E. coli [1]: up to 95%

Molecule: CC[C@H](C)[C@H](NC(=O)[C@@H](NC(=O)CN)C(C)C)C(=O)N[C@H](C(=O)N[C@@H](CC(=O)O)C(=O)N[C@H](C(=O)N[C@@H](CC(C)C)C(=O)N[C@@H](CCCCN)C(=O)NCC(=O)N[C@@H](C)C(=O)N[C@@H](C)C(=O)N[C@@H](CCCCN)C(=O)N[C@H](C(=O)N[C@H](C(=O)N[C@@H](C)C(=O)N[C@@H](C)C(=O)N[C@@H](CCC(=O)O)C(=O)N[C@@H](CC(C)C)C(=O)N[C@@H](CC(C)C)C(=O)N[C@@H](CCCNC(=N)N)C(=O)N[C@@H](CCCCN)C(=O)N[C@@H](C)C(=O)N[C@@H](Cc1c[nH]cn1)C(=O)N[C@H]1CSSC[C@@H](C(=O)O)NC(=O)[C@H](CO)NC(=O)[C@H](CC(N)=O)NC(=O)[C@H]([C@@H](C)O)NC(=O)[C@H](CC(C)C)NC(=O)[C@H](CCCCN)NC1=O)C(C)C)[C@@H](C)O)[C@@H](C)O)[C@@H](C)CC [Brevinin-2GUb] (HELM PEPTIDE1{G.V.I.I.D.T.L.K.G.A.A.K.T.V.A.A.E.L.L.R.K.A.H.C.K.L.T.N.S.C}$PEPTIDE1,PEPTIDE1,24:R3-30:R3$$$V2.0)
- MBC [2]: 32 µM (≈ 100 µg/mL)
- MIC [2]: 32 µM (≈ 100 µg/mL)
- MBC [3]: >512 µM
- MIC [3]: >512 µM
- MBC [4]: >512 µM
- MIC [4]: >512 µM
- MBC [5]: >512 µM
- MIC [5]: >512 µM
- MBC [6]: >512 µM
- MIC [6]: >512 µM
- MBC [7]: 32 µM (≈ 100 µg/mL)
- MIC [7]: 32 µM (≈ 100 µg/mL)
- MBC [8]: 16 µM (≈ 50 µg/mL)
- MIC [8]: 16 µM (≈ 50 µg/mL)
- MBC [9]: 512 µM (≈ 1600 µg/mL)
- MIC [9]: 128 µM (≈ 400 µg/mL)
- MBC [10]: >512 µM
- MIC [10]: >512 µM
- MBC [11]: 128 µM (≈ 400 µg/mL)
- MIC [11]: 128 µM (≈ 400 µg/mL)
- MBC [12]: 512 µM (≈ 1600 µg/mL)
- MIC [12]: 512 µM (≈ 1600 µg/mL)
- MBEC [13]: > 512 µM
- MBIC [13]: 256 µM
- MBEC [14]: > 512 µM
- MBIC [14]: 128 µM
- MBEC [15]: >512 µM
- MBIC [15]: >512 µM
- MBEC [16]: >512 µM
- MBIC [16]: >512 µM
- MBIC [17]: 256 µM
- MBEC [18]: >512 µM
- MBIC [18]: >512 µM
- toxicity to waxworms [19]: modest toxicity
